One data set deals with α5-GABAA receptor (Homo sapiens (Human), UniProt P18507+P31644). As to the kind of experiment: Whole-cell patch clamp electrophysiology, inverse regulation activity in α5β3γ2-HEK293 cells. The data set is classed as cell-based. As to conditions: compound 100 nM; GABA 0.05-0.06 μM (about EC7-8); clamped at −60 mV; read-out: Inverse regulation efficiency to α5-GABAA receptor. Put shortly: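 HEK293 cells expressing α5β3γ2 recorded whole-cell at −60 mV holding potential, GABA 0.05-0.06 μM (about EC7-8) applied, then compound at 100 nM final with GABA. pH 7.4 extracellular, CsCl-based pipette solution. Inverse regulation efficiency = (Itreatment−Igaba)/(Igaba−Iprebaseline)×100%.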
(In general: In patch-clamp work, channel activity is measured electrically.)

Data set [1] is described as follows: Stability in simulated gastric fluid (SGF). Type of data set: physicochemical. Conditions: 37° C., 1000 rpm. The method, then:
Simulated gastric fluid (SGF), Manufacturer: Dongguan Chuangfeng Automation Technology Co., Ltd.; Product model: CF-006.
Oscillating constant temperature metal bath, Model: Thermo; Manufacturer: Digital Skaking Drybath.
Temperature: 37° C.; rotating speed: 1000 rpm; sampling time: 0, 4 hours.
Chromatographic column: Welch Xtimate C18 3.0×100 mm, 5 μm. Mobile phase: A: 0.04% trifluoroacetic acid (TFA)/H2O (v/v), B: acetonitrile (ACN). Gradient elution was performed according to the following table, flow rate: 1.0 mL/min; injection volume: 5 μL; column temperature: 35° C.; wavelength: 254 nm.
• (a) preparation of 0.04% TFA/H2O: 400 μL of TFA was measured, placed into 1 L of H2O, and homogenously mixed; • (b) Sample stock solution: about 3 mg of test sample was weighed, and prepared into a stock solution of 10 mmol/L using DMSO; • (c) 50 μL of the sample stock solution was taken, placed into a 5 mL volumetric flask, made up to the scale with the addition of SGF, and homogenously mixed. 400 μL of the solution was taken, four samples in parallel, and shaken at 1000 rpm and 37° C.; • (d) every two samples were taken after 0 and 4 hours respectively, 400 μL of acetonitrile was added, and homogenously mixed, followed by liquid phase injection, and calculation of the change % of the main peak area in the solution after 4 hours relative to 0 hour, two average value reports being taken at each time point.

Structures are written as SMILES.

Chain of α5-GABAA receptor (P31644 32-462): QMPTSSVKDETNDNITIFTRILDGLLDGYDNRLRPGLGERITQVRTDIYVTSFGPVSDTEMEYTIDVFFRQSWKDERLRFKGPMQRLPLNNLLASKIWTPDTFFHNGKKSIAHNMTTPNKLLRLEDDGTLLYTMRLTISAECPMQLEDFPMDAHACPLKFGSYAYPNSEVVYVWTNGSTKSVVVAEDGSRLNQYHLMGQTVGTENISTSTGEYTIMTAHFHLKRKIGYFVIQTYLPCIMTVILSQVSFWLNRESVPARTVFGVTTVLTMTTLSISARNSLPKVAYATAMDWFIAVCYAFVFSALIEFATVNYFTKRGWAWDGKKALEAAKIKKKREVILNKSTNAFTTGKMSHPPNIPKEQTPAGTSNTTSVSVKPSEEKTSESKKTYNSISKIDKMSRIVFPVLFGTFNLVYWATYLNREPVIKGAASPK
Chain of α5-GABAA receptor (P28472 26-473 partner): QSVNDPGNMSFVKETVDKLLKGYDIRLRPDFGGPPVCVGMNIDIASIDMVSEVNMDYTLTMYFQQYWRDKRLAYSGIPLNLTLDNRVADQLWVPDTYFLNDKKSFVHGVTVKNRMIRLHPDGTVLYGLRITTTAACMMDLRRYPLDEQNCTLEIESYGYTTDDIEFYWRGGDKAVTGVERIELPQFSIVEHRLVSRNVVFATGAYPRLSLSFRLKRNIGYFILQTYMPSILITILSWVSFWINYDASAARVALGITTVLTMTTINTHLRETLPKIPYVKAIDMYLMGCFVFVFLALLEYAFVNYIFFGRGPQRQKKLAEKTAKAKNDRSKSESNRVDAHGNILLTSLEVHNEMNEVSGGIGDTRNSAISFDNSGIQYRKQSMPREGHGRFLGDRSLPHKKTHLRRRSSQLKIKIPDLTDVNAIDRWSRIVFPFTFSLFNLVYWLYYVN
Chain of α5-GABAA receptor (P18507 other isoform, or with tags, fused parts or gaps): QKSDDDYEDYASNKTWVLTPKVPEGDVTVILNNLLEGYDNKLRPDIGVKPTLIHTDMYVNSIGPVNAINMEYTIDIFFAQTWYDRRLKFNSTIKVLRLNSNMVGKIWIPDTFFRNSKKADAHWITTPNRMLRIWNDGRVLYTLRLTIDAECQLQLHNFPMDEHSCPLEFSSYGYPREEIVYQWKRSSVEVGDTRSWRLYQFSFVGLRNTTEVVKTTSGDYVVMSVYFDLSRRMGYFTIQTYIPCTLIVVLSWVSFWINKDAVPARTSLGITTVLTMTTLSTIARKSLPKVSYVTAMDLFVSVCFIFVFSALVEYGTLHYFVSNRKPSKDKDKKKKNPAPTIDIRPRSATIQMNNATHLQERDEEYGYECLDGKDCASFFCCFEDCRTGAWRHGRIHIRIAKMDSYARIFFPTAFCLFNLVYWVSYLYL

Consider `Cc1onc(-c2ccc(F)cc2)c1COc1ccc(-c2nnc3n2CCOC3)nn1` [Compound 18, 3-(6-((3-(4-fluorophenyl)-5-methylisoxazol-4-yl)methoxy)pyridazin-3-yl)-5,6-dihydro-8H-[1,2,4]triazolo[3,4-c][1,4]oxazine], for which the inhibition at 0.1 µM at α5-GABAA receptor was found to be 57%. Also, in data set [1], the “Residual content in simulated gastric juice after 4 hours (compared with 0 hour content)” value is on record as 51% (4 hours).

On to `Cc1onc(-c2ccc(F)cc2)c1COc1cnc(-c2nnc3n2CCCOC3)cn1` [Compound 24, 3-(5-((3-(4-fluorophenyl)-5-methylisoxazol-4-yl)methoxy)pyrazin-2-yl)-6,7-dihydro-5H,9H-[1,2,4]triazolo[3,4-c][1,4]oxazepane], for which the inhibition at 0.1 µM on α5-GABAA receptor stood at 44%.

With `Cc1onc(-c2ccc(F)cc2)c1COc1ccc(-c2cc3n(c(=O)n2)CCN3C)cn1` [Compound 41, 7-(6-((3-(4-fluorophenyl)-5-methylisoxazol-4-yl)methoxy)pyridin-3-yl)-1-methyl-2,3-dihydroimidazo[1,2-c]pyrimidin-5(1H)-one], on α5-GABAA receptor, the inhibition at 0.1 µM was 47%. The “Residual content in simulated gastric juice after 4 hours (compared with 0 hour content)” value in data set [1] was 35% (4 hours).

As for `Cc1onc(-c2ccc(F)cc2)c1COc1ccc(-c2nnc3n2CCOC3)cn1` [Compound 17, 3-(6-((3-(4-fluorophenyl)-5-methylisoxazol-4-yl)methoxy)pyridin-3-yl)-5,6-dihydro-8H-[1,2,4]triazolo[3,4-c][1,4]oxazine], the inhibition at 0.1 µM on α5-GABAA receptor worked out at 49%. In data set [1], the “Residual content in simulated gastric juice after 4 hours (compared with 0 hour content)” value is listed as 65% (4 hours).

In the case of `Cc1onc(-c2ccc(F)cc2)c1COc1cnc(-c2nnc3n2CCOC3)cn1` [Compound 19, 3-(5-((3-(4-fluorophenyl)-5-methylisoxazol-4-yl)methoxy)pyrazin-2-yl)-5,6-dihydro-8H-[1,2,4]triazolo[3,4-c][1,4]oxazine], the inhibition at 0.1 µM on α5-GABAA receptor turned out to be 54%. The “Residual content in simulated gastric juice after 4 hours (compared with 0 hour content)” value in data set [1] is 94% (4 hours).

In the case of `Cc1onc(-c2ccc(F)cc2)c1COc1ccc(N2CCN3CCNC(=O)C3C2)nn1` (stereo not drawn) [Compound 10, 8-(6-((3-(4-fluorophenyl)-5-methylisoxazol-4-yl)methoxy)pyridazin-3-yl) hexahydro-2H-pyrazino[1,2-a]pyrazin-1 (6H)-one], on α5-GABAA receptor, the inhibition at 0.1 µM was 66%.

Take `Cc1onc(-c2ccc(F)cc2)c1COc1ccc(-c2nnc3n2CCS(=O)(=O)C3)cn1` [Compound 7, 3-(6-((3-(4-fluorophenyl)-5-methylisoxazol-4-yl)methoxy)pyridin-3-yl)-5,6-dihydro-8H-[1,2,4]triazolo[3,4-c][1,4]thiazine 7,7-dioxide]: the inhibition at 0.1 µM on α5-GABAA receptor was found to be 37%.

Turning to `Cc1onc(-c2ccc(F)cc2)c1COc1ccc(-c2cc3n(c(=O)n2)C[C@]24CO[C@H](CN32)C4)cn1` [Compound 38], the inhibition at 0.1 µM on α5-GABAA receptor turned out to be 56%. For the same compound, the “Residual content in simulated gastric juice after 4 hours (compared with 0 hour content)” value in data set [1] was 75% (4 hours).

As for `Cc1onc(-c2ccc(F)cc2)c1COc1cnc(-c2nnc3n2CCC3)cn1` [Compound 23, 4-(((5-(6,7-dihydro-5H-pyrrolo[2,1-c][1,2,4]triazol-3-yl)pyrazin-2-yl)oxy)methyl)-3-(4-fluorophenyl)-5-methylisoxazole], at α5-GABAA receptor, the inhibition at 0.1 µM came out at 45%. Moreover, in data set [1], the “Residual content in simulated gastric juice after 4 hours (compared with 0 hour content)” value was 80% (4 hours).

As to `Cc1onc(-c2ccc(F)cc2)c1COc1cnc(-c2nnc3n2CCOCC3)cn1` [Compound 33, 3-(5-((3-(4-fluorophenyl)-5-methylisoxazol-4-yl)methoxy)pyrazin-2-yl)-5,6,8,9-tetrahydro-[1,2,4]triazolo[4,3-d][1,4]oxazepane], the inhibition at 0.1 µM on α5-GABAA receptor was determined as 48%. Moreover, in data set [1], the “Residual content in simulated gastric juice after 4 hours (compared with 0 hour content)” value is given as 91% (4 hours).

For the compound `Cc1onc(-c2ccc(F)cc2)c1COc1ccc(N2CCn3ccnc3C2=O)nn1` [Compound 37, 7-(6-((3-(4-fluorophenyl)-5-methylisoxazol-4-yl)methoxy)pyridazin-3-yl)-6,7-dihydroimidazo[1,2-a]pyrazin-8(5H)-one], at α5-GABAA receptor, the inhibition at 0.1 µM is 54%.
